This note sets out measurements from US9255100B2 (BAYER INTELLECTUAL PROPERTY GMBH, priority 2010, dated 2016).

This experiment has as its target T1, N-terminally GST-tagged human full length recombinant Mps-1 kinase (Homo sapiens, UniProt P33981).
T1 construct: N-terminally GST-tagged human full length recombinant Mps-1 kinase; purchased Invitrogen, Karslruhe, Germany PV4071
T1 sequence (P33981 1-857): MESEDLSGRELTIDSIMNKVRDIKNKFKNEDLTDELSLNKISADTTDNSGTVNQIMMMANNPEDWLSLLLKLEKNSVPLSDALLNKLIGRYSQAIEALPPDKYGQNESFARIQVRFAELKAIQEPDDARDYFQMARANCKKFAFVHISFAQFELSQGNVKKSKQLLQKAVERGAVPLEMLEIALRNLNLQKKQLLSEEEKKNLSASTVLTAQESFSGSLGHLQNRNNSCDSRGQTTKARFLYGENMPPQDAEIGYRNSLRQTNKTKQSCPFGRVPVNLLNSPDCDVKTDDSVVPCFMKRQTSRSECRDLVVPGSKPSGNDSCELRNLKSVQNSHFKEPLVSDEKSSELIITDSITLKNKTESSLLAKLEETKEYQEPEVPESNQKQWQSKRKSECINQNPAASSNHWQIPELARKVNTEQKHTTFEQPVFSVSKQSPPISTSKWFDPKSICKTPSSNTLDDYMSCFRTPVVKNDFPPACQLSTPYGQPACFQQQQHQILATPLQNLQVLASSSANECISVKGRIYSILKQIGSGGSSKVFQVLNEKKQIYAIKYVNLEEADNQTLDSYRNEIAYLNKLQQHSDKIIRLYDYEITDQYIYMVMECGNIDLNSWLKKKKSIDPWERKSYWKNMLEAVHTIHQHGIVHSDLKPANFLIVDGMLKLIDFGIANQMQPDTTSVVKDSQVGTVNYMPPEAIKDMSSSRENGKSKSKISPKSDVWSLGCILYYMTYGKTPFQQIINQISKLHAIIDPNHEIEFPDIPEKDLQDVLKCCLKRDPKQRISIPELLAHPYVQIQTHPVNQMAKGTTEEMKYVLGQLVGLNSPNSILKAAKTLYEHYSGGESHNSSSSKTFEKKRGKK
Put plainly: Mps-1 kinase assay (TR-FRET). In kind it is biochemical. As to conditions: Mps1 IC50 [nM], 10 μM ATP, 1 μM peptide substrate, 60 min at 22° C. A digest of the protocol:
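Kinase activity of N-terminally GST-tagged full-length recombinant Mps-1, used at about 1 nM final and set within the linear range, was measured on a biotinylated peptide substrate. Phosphopeptide was detected by TR-FRET from Eu-anti-phospho(Ser/Thr) antibody to streptavidin-XLent after 1 h at 22° C.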
On the technique in general: TR-FRET usually uses a lanthanide donor and a delayed reading to cut background.
`Cc1cc(-c2cnc3c(NCCC(=O)N(C)C)cc(Oc4cccc(F)c4)nn23)ccc1C(=O)NC1CC1` [Example 493, N-cyclopropyl-4-[8-{[3-(dimethyl-amino)-3-oxopropyl]amino}-6-(3-fluorophenoxy)imidazo[1,2-b]pyridazin-3-yl]-2-methyl-benzamide]: the 50% inhibitory concentration (IC50) worked out at 0.3 nM.

Turning to `Cc1cc(-c2cnc3c(NCC4CCC(F)(F)CC4)cc(Oc4cccc(F)c4)nn23)ccc1C(=O)NC1CC1` [Example 494, N-cyclopropyl-4-[8-{[(4,4-difluorocyclohexyl)methyl]amino}-6-(3-fluorophenoxy)imidazo[1,2-b]pyridazin-3-yl]-2-methylbenzamide], the IC50 is 0.3 nM.

Take `Cc1cc(-c2cnc3c(NCC4COC4)cc(Oc4cccc(F)c4)nn23)ccc1C(=O)NC1CC1` [Example 495, N-cyclopropyl-4-{6-(3-fluoro-phenoxy)-8-[(oxetan-3-ylmethyl)amino]imidazo[1,2-b]pyridazin-3-yl}-2-methylbenzamide]: the IC50 amounted to 0.1 nM.

Consider `Cc1cc(-c2cnc3c(NCc4nnn[nH]4)cc(Oc4cccc(F)c4)nn23)ccc1C(=O)NC1CC1` [Example 496, N-cyclopropyl-4-{6-(3-fluoro-phenoxy)-8-[(1H-tetrazol-5-ylmethyl)amino]imidazo[1,2-b]pyridazin-3-yl}-2-methylbenzamide], for which the IC50 turned out to be 8.9 nM.

Take `Cc1cc(-c2cnc3c(NCC(C)(C)N(C)C)cc(Oc4cccc(F)c4)nn23)ccc1C(=O)NC1CC1` [Example 497, N-cyclopropyl-4-[8-{[2-(dimethyl-amino)-2-methylpropyl]amino}-6-(3-fluorophenoxy)imidazo [1,2-b]pyridazin-3-yl]-2-methyl-benzamide]: the 50% inhibitory concentration (IC50) turned out to be 0.2 nM.

In the case of `Cc1cc(-c2cnc3c(NCC(C)(C)N4CCOCC4)cc(Oc4cccc(F)c4)nn23)ccc1C(=O)NC1CC1` [Example 498, N-cyclopropyl-4-[6-(3-fluoro-phenoxy)-8-{[2-methyl-2-(morpholin-4-yl)propyl]amino}imidazo[1,2-b]pyridazin-3-yl]-2-methylbenzamide], the concentration for half-maximal inhibition (IC50) stood at 0.3 nM.

On to `Cc1cc(-c2cnc3c(NCCN4CCCCC4)cc(Oc4cccc(F)c4)nn23)ccc1C(=O)NC1CC1` [Example 499, N-cyclopropyl-4-[6-(3-fluoro-phenoxy)-8-{[2-(piperidin-1-yl)ethyl]amino}imidazo[1,2-b]pyridazin-3-yl]-2-methyl-benzamide], for which the 50% inhibitory concentration (IC50) is 0.2 nM.

For `Cc1cc(-c2cnc3c(NCCN4CCN(C)CC4)cc(Oc4cccc(F)c4)nn23)ccc1C(=O)NC1CC1` [Example 501, N-cyclopropyl-4-[6-(3-fluoro-phenoxy)-8-{[2-(4-methyl-piperazin-1-yl)ethyl]amino}imidazo[1,2-b]pyridazin-3-yl]-2-methylbenzamide], the concentration for half-maximal inhibition (IC50) was found to be 0.1 nM.

Regarding `Cc1cc(-c2cnc3c(NCCN4CCCC4)cc(Oc4cccc(F)c4)nn23)ccc1C(=O)NC1CC1` [Example 502, N-cyclopropyl-4-[6-(3-fluoro-phenoxy)-8-{[2-(pyrrolidin-1-yl)ethyl]amino}imidazo[1,2-b]pyridazin-3-yl]-2-methyl-benzamide], the IC50 was determined as 0.2 nM.

For `CNC(=O)N(C)CCCNc1cc(Oc2cccc(F)c2)nn2c(-c3ccc(C(=O)NC4CC4)c(C)c3)cnc12` [Example 503, N-cyclopropyl-4-[6-(3-fluoro-phenoxy)-8-({3-[methyl(methyl-carbamoyl)amino]propyl}amino)imidazo[1,2-b]pyridazin-3-yl]-2-methylbenzamide], the IC50 worked out at 0.2 nM.

For `CC(=O)NCCNc1cc(Oc2cccc(F)c2)nn2c(-c3ccc(C(=O)NC4CC4)c(C)c3)cnc12` [Example 504, 4-[8-{[2-(acetylamino)ethyl]amino}-6-(3-fluorophenoxy)imidazo[1,2-b]pyridazin-3-yl]-N-cyclopropyl-2-methyl-benzamide], the IC50 turned out to be 0.2 nM.

As for `Cc1cc(-c2cnc3c(NCCCN4CCCCC4)cc(Oc4cccc(F)c4)nn23)ccc1C(=O)NC1CC1` [Example 505, N-cyclopropyl-4-[6-(3-fluoro-phenoxy)-8-{[3-(piperidin-1-yl)propyl]amino}imidazo[1,2-b]pyridazin-3-yl]-2-methyl-benzamide], the IC50 stood at 0.2 nM.

In the case of `Cc1cc(-c2cnc3c(NCCCN4CCOCC4)cc(Oc4cccc(F)c4)nn23)ccc1C(=O)NC1CC1` [Example 506, N-cyclopropyl-4-[6-(3-fluoro-phenoxy)-8-{[3-(morpholin-4-yl)propyl]amino}imidazo[1,2-b]pyridazin-3-yl]-2-methyl-benzamide], the half-maximal inhibitory concentration (IC50) stood at 0.1 nM.

As for `Cc1cc(-c2cnc3c(NCCCN4CCCC4)cc(Oc4cccc(F)c4)nn23)ccc1C(=O)NC1CC1` [Example 507, N-cyclopropyl-4-[6-(3-fluoro-phenoxy)-8-{[3-(pyrrolidin-1-yl)propyl]amino}imidazo[1,2-b]pyridazin-3-yl]-2-methyl-benzamide], the IC50 was 0.2 nM.

With `Cc1cc(-c2cnc3c(NCCCS(C)(=O)=O)cc(Oc4cccc(F)c4)nn23)ccc1C(=O)NC1CC1` [Example 508, N-cyclopropyl-4-[6-(3-fluoro-phenoxy)-8-{[3-(methylsulfonyl)propyl]amino}imidazo[1,2-b]pyridazin-3-yl]-2-methyl-benzamide], the IC50 came to 0.2 nM.

Consider `CC(=O)NCCCNc1cc(Oc2cccc(F)c2)nn2c(-c3ccc(C(=O)NC4CC4)c(C)c3)cnc12` [Example 509, 4-[8-{[3-(acetylamino)propyl]amino}-6-(3-fluorophenoxy)imidazo[1,2-b]pyridazin-3-yl]-N-cyclopropyl-2-methyl-benzamide], for which the half-inhibitory concentration (IC50) came to 0.1 nM.

As to `Cc1cc(-c2cnc3c(NCCc4nnn[nH]4)cc(Oc4cccc(F)c4)nn23)ccc1C(=O)NC1CC1` [Example 511, N-cyclopropyl-4-[6-(3-fluoro-phenoxy)-8-{[2-(1H-tetrazol-5-yl)ethyl]amino}imidazo[1,2-b]pyridazin-3-yl]-2-methyl-benzamide], the half-maximal inhibitory concentration (IC50) was found to be 0.3 nM.

Take `Cc1cc(-c2cnc3c(NCC(F)F)cc(Oc4cccc(F)c4)nn23)ccc1C(=O)NC1CC1` [Example 512, N-cyclopropyl-4-{8-[(2,2-difluoro-ethyl)amino]-6-(3-fluoro-phenoxy)imidazo[1,2-b]pyridazin-3-yl}-2-methylbenzamide]: the IC50 is 0.1 nM.

As for `Cc1cc(-c2cnc3c(NCCCCN(C)C)cc(Oc4cccc(F)c4)nn23)ccc1C(=O)NC1CC1` [Example 513, N-cyclopropyl-4-[8-{[4-(dimethyl-amino)butyl]amino}-6-(3-fluoro-phenoxy)imidazo[1,2-b]pyridazin-3-yl]-2-methylbenzamide], the IC50 was determined as 0.2 nM.

Take `Cc1cc(-c2cnc3c(NCC(F)(F)F)cc(Oc4cccc(F)c4)nn23)ccc1C(=O)NC1CC1` [Example 514, N-cyclopropyl-4-{6-(3-fluoro-phenoxy)-8-[(2,2,2-trifluoroethyl)amino]imidazo[1,2-b]pyridazin-3-yl}-2-methylbenzamide]: the IC50 was found to be 8 nM.

On to `Cc1cc(-c2cnc3c(NCCn4cccn4)cc(Oc4cccc(F)c4)nn23)ccc1C(=O)NC1CC1` [Example 515, N-cyclopropyl-4-[6-(3-fluoro-phenoxy)-8-{[2-(1H-pyrazol-1-yl)ethyl]amino}imidazo[1,2-b]pyridazin-3-yl]-2-methyl-benzamide], for which the IC50 was 0.4 nM.

For the compound `Cc1ccc(F)cc1Oc1cc(NCCS(C)(=O)=O)c2ncc(-c3ccc(C(=O)NC4CC4)c(C)c3)n2n1` [Example 517, N-cyclopropyl-4-[6-(5-fluoro-2-methylphenoxy)-8-{[2-(methylsulfonyl)ethyl]amino}imidazo [1,2-b]pyridazin-3-yl]-2-methylbenzamide], the IC50 worked out at 0.2 nM.

Regarding `COc1ccc(Oc2cc(NCCS(C)(=O)=O)c3ncc(-c4ccc(C(=O)NC5CC5)c(C)c4)n3n2)cc1F` [Example 518, N-cyclopropyl-4-[6-(3-fluoro-4-methoxyphenoxy)-8-{[2-(methylsulfonyl)ethyl]amino}imidazo [1,2-b]pyridazin-3-yl]-2-methylbenzamide], the IC50 amounted to 0.1 nM.

Consider `COc1ccc(Oc2cc(NCCS(C)(=O)=O)c3ncc(-c4ccc(C(=O)NC5CC5)c(C)c4)n3n2)c(F)c1` [Example 519, N-cyclopropyl-4-[6-(2-fluoro-4-methoxyphenoxy)-8-{[2-(methylsulfonyl)ethyl]amino]imidazo [1,2-b]pyridazin-3-yl]-2-methylbenzamide], for which the 50% inhibitory concentration (IC50) turned out to be 0.1 nM.

Take `Cc1cc(-c2cnc3c(NCC(C)(C)N)cc(Oc4ccc(F)c(F)c4)nn23)ccc1C(=O)NC1CC1` [Example 520, 4-{8-[(2-amino-2-methylpropyl)amino]-6-(3,4-difluorophenoxy)imidazo[1,2-b]pyridazin-3-yl}-N-cyclopropyl-2-methylbenzamide]: the IC50 was 0.2 nM.

A word on the IC50: it is the concentration needed to halve the response being measured.
